The values that follow come from US20130095094A1, “ASSAY” (University of Leicester, priority 2010, published 2013).

For one data set, the target named is T1, human TLR-2 (Homo sapiens, UniProt O60603).
T1 construct: host or cells: HEK-293
In words: TLR-transfection NF-κB reporter (pELAM) assay, HEK-293 cells transfected with TLR-2 and CD14. Type of data set: cell-based. As to the method: (§1) For transfection assays, human embryonic kidney (HEK)-293 cells were plated in 96 well plates at 10^4 cells per well and transfected after 24 h using Genejuice (Novagen) according to manufacturer's instructions. The following amounts of constructs were added to each well: 30 ng of human TLR-2, TLR-5 or TLR-4 (co-expressing MD-2), 30 ng of pCD14 and 10 ng of NF-κB-sensitive luciferase-reporter construct (pELAM). Cells were grown for 3 days post transfection prior to 18 h challenge. Promoter expression was calculated as fold induction relative to cells cultured in medium alone +/−SD. Endogenous expression of TLRs in HEK-293 has been ruled out by RT-PCR by the inventor.
(§2) Log-transformed PAMP concentrations were then plotted against fold-induction of NF-κB reporter to generate a standard curve. […] For example, results presented as 200 ng/g BLP-equivalent means that each gramme of food contains TLR-2-stimulants with a capacity to stimulate TLR-2-signalling equal to that of 200 ng Pam3CSK4. Food extracts were measured at 1:10 dilution in DMEM/10% FCS in duplicate. If signals exceeded the range of the standard curve, further dilutions were prepared and reassayed.
Samples were then maintained at 100 ° C. for 1 -120 min, before cooling, diluting 1:10 in DMEM/10% FCS and applying to HEK-293 cells transfected with TLR-2 or TLR-4/MD2 for measurement of capacity to induce TLR-signalling as described above. […] Samples were then neutralised by addition of NaOH solution and applied to TLR-transfected HEK-293 cells as described above.
As a negative control, parallel samples were supplemented with an equal molarity of NaCl to account for increased salinity of samples due to acid/base neutralisation. […] Control samples were also heat-treated for 10 minutes.
TLR-stimulants were quantified in both whole heat-treated saliva (100° C. for 10 minutes), intended to reflect total bacteria-associated TLR-stimulants, and in saliva diluted 1:10 in PBS and filter-sterilised (0.22 μm, Acrodisc), intended to reflect soluble TLR-stimulants in human saliva. A recently developed bioassay based upon the measurement of NF-κB-dependent reporter activation in TLR-deficient HEK-293 cells transfected with human TLR2, TLR4/MD2 or TLR5, and callibrated with TLR2-, TLR4- or TLR5-stimulating standards (Erridge et al., 2010, Public Library of Science One 5, e9125), was used to quantify TLR-stimulants in saliva samples. Briefly, cells were plated in 96-well plates at 2×10^4 cells per well and transfected after 24 h using Genejuice (Novagen). Amounts of construct per well were 30 ng of human TLR2, TLR4 (co-expressing MD-2) or TLR5 (Invivogen), 30 ng of CD14 and 10 ng of firefly luciferase-reporter construct driven by the NF-KB dependent E-selectin promoter (pELAM). 3 days after transfection, cells were challenged in triplicate with heat-treated or sterile-filtered saliva samples diluted 1:100 in DMEM/1%FCS. […] After 18 h, NF-κB-dependent reporter expression was measured using Promega Dual-Glo reagent. Fold induction of reporter was calculated relative to cells cultured in medium alone and a standard curve was prepared by plotting fold NF-κB induction vs concentration for each standard PAMP. […] For example, results presented as 200 ng/ml lipopeptide-equivalents indicate that 1 ml of saliva contains TLR2-stimulants with a capacity to stimulate TLR2-signalling equal to that of 200 ng Pam3CSK4. The coefficient of variance of the assay averaged ˜20%. […]

Data set [1] concerns HEK-293 cells transfected with CD14 alone. In words: NF-κB reporter in HEK-293 cells transfected with CD14 and reporter alone (no corresponding TLR). The format is cell-based, human. The conditions noted are these: data not shown.
A further data set has as its system human monocytes. Nature of the data set: Challenge of human monocytes with food extracts, TNF-α (L929 bioassay) / IL-6 (ELISA) secretion. The format is cell-based. The conditions noted are these: 25 μg/ml OxPAPC, filter-sterilised food extracts, 4 h. On the technique in general: An ELISA detects its analyte on a solid surface through an enzyme-linked reagent.
Data set [2] has as its system HEK-293 cells transfected with CD14 alone. Particulars: 10 μg/ml, positive control; cited from earlier work.
The target in the next data set is T2, human TLR-5 (Homo sapiens, UniProt O60602).
T2 construct: host or cells: HEK-293
In words: TLR-transfection NF-κB reporter (pELAM) assay, HEK-293 cells transfected with TLR-5 and CD14. The format is cell-based. As to the method: as §1, §2
TLR-stimulants were quantified in both whole heat-treated saliva (100° C. for 10 minutes), intended to reflect total bacteria-associated TLR-stimulants, and in saliva diluted 1:10 in PBS and filter-sterilised (0.22 μm, Acrodisc), intended to reflect soluble TLR-stimulants in human saliva. A recently developed bioassay based upon the measurement of NF-κB-dependent reporter activation in TLR-deficient HEK-293 cells transfected with human TLR2, TLR4/MD2 or TLR5, and callibrated with TLR2-, TLR4- or TLR5-stimulating standards (Erridge et al., 2010, Public Library of Science One 5, e9125), was used to quantify TLR-stimulants in saliva samples. […] After 18 h, NF-κB-dependent reporter expression was measured using Promega Dual-Glo reagent. Fold induction of reporter was calculated relative to cells cultured in medium alone and a standard curve was prepared by plotting fold NF-κB induction vs concentration for each standard PAMP. […]

Where [3] appears, read: pH 1.0 with HCl 2 h or 3 h, then neutralised.

T2 sequence (O60602 21-858): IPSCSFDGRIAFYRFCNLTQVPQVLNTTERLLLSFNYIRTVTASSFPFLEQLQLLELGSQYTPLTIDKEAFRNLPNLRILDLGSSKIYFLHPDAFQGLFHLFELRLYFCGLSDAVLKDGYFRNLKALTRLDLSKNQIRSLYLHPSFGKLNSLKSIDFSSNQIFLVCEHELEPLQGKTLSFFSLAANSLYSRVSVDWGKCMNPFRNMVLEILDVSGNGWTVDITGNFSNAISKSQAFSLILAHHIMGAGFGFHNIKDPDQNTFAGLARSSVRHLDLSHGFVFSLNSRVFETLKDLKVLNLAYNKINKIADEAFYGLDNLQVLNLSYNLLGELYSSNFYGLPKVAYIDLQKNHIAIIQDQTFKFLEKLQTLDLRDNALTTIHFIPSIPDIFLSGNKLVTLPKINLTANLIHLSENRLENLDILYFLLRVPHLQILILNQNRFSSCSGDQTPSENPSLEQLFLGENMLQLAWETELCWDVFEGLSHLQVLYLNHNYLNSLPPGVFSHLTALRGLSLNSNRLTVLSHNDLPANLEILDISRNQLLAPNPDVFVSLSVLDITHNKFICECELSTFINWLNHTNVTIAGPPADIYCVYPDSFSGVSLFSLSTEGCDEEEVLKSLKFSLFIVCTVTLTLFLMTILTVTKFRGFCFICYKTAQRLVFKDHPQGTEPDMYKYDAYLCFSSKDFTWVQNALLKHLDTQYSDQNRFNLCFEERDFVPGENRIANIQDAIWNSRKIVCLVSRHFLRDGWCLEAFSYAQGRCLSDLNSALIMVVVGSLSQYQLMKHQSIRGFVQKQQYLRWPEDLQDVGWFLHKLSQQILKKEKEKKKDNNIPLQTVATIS
T1 sequence (O60603 21-784): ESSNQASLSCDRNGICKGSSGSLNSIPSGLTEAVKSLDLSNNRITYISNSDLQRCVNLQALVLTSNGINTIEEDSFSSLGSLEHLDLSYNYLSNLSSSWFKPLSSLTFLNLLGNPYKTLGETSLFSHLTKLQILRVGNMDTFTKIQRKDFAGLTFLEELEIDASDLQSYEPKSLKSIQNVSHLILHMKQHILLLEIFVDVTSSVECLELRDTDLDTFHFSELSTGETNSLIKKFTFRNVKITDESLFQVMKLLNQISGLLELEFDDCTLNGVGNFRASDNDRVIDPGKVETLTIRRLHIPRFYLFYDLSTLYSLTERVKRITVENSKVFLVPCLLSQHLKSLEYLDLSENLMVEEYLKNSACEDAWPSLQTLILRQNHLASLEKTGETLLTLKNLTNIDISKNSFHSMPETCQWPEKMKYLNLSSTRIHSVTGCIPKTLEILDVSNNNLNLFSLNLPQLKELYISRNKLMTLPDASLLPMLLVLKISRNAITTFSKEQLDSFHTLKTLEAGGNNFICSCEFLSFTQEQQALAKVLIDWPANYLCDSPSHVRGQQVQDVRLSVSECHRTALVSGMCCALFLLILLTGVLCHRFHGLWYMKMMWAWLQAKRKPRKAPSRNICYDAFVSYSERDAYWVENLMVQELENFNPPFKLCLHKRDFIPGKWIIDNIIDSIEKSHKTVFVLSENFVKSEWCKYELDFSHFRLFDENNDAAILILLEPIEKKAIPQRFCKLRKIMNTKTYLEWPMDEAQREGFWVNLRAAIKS
Experimental for human monocytes: Venous blood was collected by venepuncture from consenting healthy human subjects according to the guidelines laid down in the Declaration of Helsinki and all procedures involving human subjects were approved by the University of Leicester College of Medicine Research Ethics Committee. Written informed consent was obtained from all subjects. Peripheral blood mononuclear cells (PBMC) were prepared by density gradient centrifugation at 800 g for 25 min using Histopaque-1077 (Sigma). Recovered cells were washed twice in PBS solution, resuspended in RPMI/10% fetal calf serum (FCS) (Sigma) and plated in 96-well plates at 4×10^5 cells per well. Monocytes were prepared from PBMC by plastic adherence (1 h at 37° C.), followed by gentle washing to remove non-adherent cells. Remaining monocytes were then challenged by adding a 1:20 dilution of each sterile-filtered food extract in tissue culture medium. After incubation at 37° C. for 4 h, supernatants were removed for assay of TNF-α content by L929-cell bioassay as described in Delahooke et al. (1995, Infect. Immun. 63, 840-846), or IL-6 levels were measured by ELISA (R&D) after 18 h.

For the molecule Pam3CSK4, the “Biological activity (TLR-2 signalling) after heating” value on human TLR-2 (100 ng/ml, 100° C. for up to 2 hours) was “not measurably reduced”. Moreover, the “Minimum concentration to which transfected cells were sensitive” value on human TLR-2 (TLR-2 transfected HEK-293) turned out to be 0.1 ng/mL. The “Capacity to stimulate TLR-2 after low pH treatment” value at human TLR-2 (setting [3]) is reported as “did not affect”. Besides, the “Biological activity (TLR-2) after protease treatment” value at human TLR-2 (proteinase-K 37° C. 1 h) is on record as “unaffected”. Also, in data set [1], the “Activation of HEK-293 cells transfected with CD14 alone, or with non-corresponding TLRs” value was “unable to activate”.

As to “oxidised palmitoyl-arachidonyl phosphocholine [OxPAPC]”, the “TNF-α secretion in response to each stimulant-containing foodstuff in presence of OxPAPC” value with human monocytes was “completely abrogated”. Also, the “Inhibition of TLR2-dependent signalling induced by patient saliva samples” value at human TLR-2 (25 μg/ml OxPAPC, filter-sterilised saliva 1:100, 18 h) was “significantly blocked”.

Turning to polyinosinic acid [PolyI:C], in data set [2], the “NF-κB activation in HEK-293 cells” value is recorded as “stimulates NF-κB activation independently of TLR2, TLR4 or TLR5”.

B1: flagellin: S. typhimurium flagellin purchased from Invivogen, TLR5 standard (protein, UniProt P06179 2-495, looked up)
Flagellin: AQVINTNSLSLLTQNNLNKSQSALGTAIERLSSGLRINSAKDDAAGQAIANRFTANIKGLTQASRNANDGISIAQTTEGALNEINNNLQRVRELAVQSANSTNSQSDLDSIQAEITQRLNEIDRVSGQTQFNGVKVLAQDNTLTIQVGANDGETIDIDLKQINSQTLGLDTLNVQQKYKVSDTAATVTGYADTTIALDNSTFKASATGLGGTDQKIDGDLKFDDTTGKYYAKVTVTGGTGKDGYYEVSVDKTNGEVTLAGGATSPLTGGLPATATEDVKNVQVANADLTEAKAALTAAGVTGTASVVKMSYTDNNGKTIDGGLAVKVGDDYYSATQNKDGSISINTTKYTADDGTSKTALNKLGGADGKTEVVSIGGKTYAASKAEGHNFKAQPDLAEAAATTTENPLQKIDAALAQVDTLRSDLGAVQNRFNSAITNLGNTVNNLTSARSRIEDSDYATEVSNMSRAQILQQAGTSVLAQANQVPQNVLSLLR
Regarding B1, the “Biological activity (TLR5 signalling) after heating” value with human TLR-5 (100 ng/ml, 100° C., by 1 h) is reported as “almost completely abolished”. The “Biological activity (TLR5) after low pH treatment” value in the data set with human TLR-5 (setting [3]) was “increased”. For the same molecule, the “Bioactivity (TLR5) after protease treatment” value with human TLR-5 (proteinase-K 37° C. 1 h) was “abolished”. Besides, the “Activation of HEK-293 cells transfected with CD14 alone, or with non-corresponding TLRs” value in data set [1] is recorded as “unable to activate”.
